According to ChEMBL document CHEMBL3244076, “N,N'-(Phenylene)dioxamic acids and their esters as antiallergy agents” (1978):

How the values were obtained:
Assay type in all cases: functional
Rattus norvegicus [1] = assay: Antiallergic activity in anti-egg albumin homocytotropic antibody-sensitized Sprague-Dawley rat assessed as inhibition of passive cutaneous anaphylaxis reaction at 50 mg/kg, po administered 20 mins prior to antigen egg albumin challenge
Rattus norvegicus [2] = assay: Antiallergic activity in anti-egg albumin homocytotropic antibody-sensitized Sprague-Dawley rat assessed as inhibition of passive cutaneous anaphylaxis reaction at 50 mg/kg, po administered 60 mins prior to antigen egg albumin challenge
Rattus norvegicus [3] = assay: Antiallergic activity in anti-egg albumin homocytotropic antibody-sensitized Sprague-Dawley rat assessed as inhibition of passive cutaneous anaphylaxis reaction at 50 mg/kg, po administered 5 mins prior to antigen egg albumin challenge
Rattus norvegicus [4] = assay: Antiallergic activity in anti-egg albumin homocytotropic antibody-sensitized Sprague-Dawley rat assessed as inhibition of passive cutaneous anaphylaxis reaction at 1 mg/kg, iv administered at the time of antigen egg albumin challenge
Rattus norvegicus [5] = assay: Antiallergic activity in anti-egg albumin homocytotropic antibody-sensitized Sprague-Dawley rat assessed as inhibition of passive cutaneous anaphylaxis reaction at 0.1 mg/kg, iv administered at the time of antigen egg albumin challenge
Rattus norvegicus [6] = assay: Antiallergic activity in anti-egg albumin homocytotropic antibody-sensitized Sprague-Dawley rat assessed as inhibition of passive cutaneous anaphylaxis reaction at 0.001 mg/kg, iv administered at the time of antigen egg albumin challenge
Rattus norvegicus [7] = assay: Antiallergic activity in anti-egg albumin homocytotropic antibody-sensitized Sprague-Dawley rat assessed as inhibition of passive cutaneous anaphylaxis reaction at 0.01 mg/kg, iv administered at the time of antigen egg albumin challenge
Rattus norvegicus [8] = assay: Antiallergic activity in anti-egg albumin homocytotropic antibody-sensitized Sprague-Dawley rat assessed as inhibition of passive cutaneous anaphylaxis reaction at 50 mg/kg, po administered 120 mins prior to antigen egg albumin challenge
Rattus norvegicus [9] = assay: Antiallergic activity in anti-egg albumin homocytotropic antibody-sensitized Sprague-Dawley rat assessed as inhibition of passive cutaneous anaphylaxis reaction at 10 mg/kg, po administered 60 mins prior to antigen egg albumin challenge
Rattus norvegicus [10] = assay: Antiallergic activity in anti-egg albumin homocytotropic antibody-sensitized Sprague-Dawley rat assessed as inhibition of passive cutaneous anaphylaxis reaction at 10 mg/kg, po administered 5 mins prior to antigen egg albumin challenge
Rattus norvegicus [11] = assay: Antiallergic activity in anti-egg albumin homocytotropic antibody-sensitized Sprague-Dawley rat assessed as inhibition of passive cutaneous anaphylaxis reaction at 10 mg/kg, po administered 20 mins prior to antigen egg albumin challenge
Rattus norvegicus [12] = assay: Antiallergic activity in anti-egg albumin homocytotropic antibody-sensitized Sprague-Dawley rat assessed as inhibition of passive cutaneous anaphylaxis reaction at 50 mg/kg, po administered prior to antigen egg albumin challenge
Rattus norvegicus [13] = assay: Antiallergic activity in anti-egg albumin homocytotropic antibody-sensitized Sprague-Dawley rat assessed as time of peak action for inhibition of passive cutaneous anaphylaxis reaction at 50 mg/kg, po administered prior to antigen egg albumin challenge

| Compound | inhibition in vivo at 50 mg/kg (Rattus norvegicus [1]) | inhibition in vivo at 50 mg/kg (Rattus norvegicus [2]) | inhibition in vivo at 50 mg/kg (Rattus norvegicus [3]) | inhibition in vivo at 1 mg/kg (Rattus norvegicus [4]) | inhibition in vivo at 0.1 mg/kg (Rattus norvegicus [5]) | other results |
| --- | --- | --- | --- | --- | --- | --- |
| CCOC(=O)C(=O)Nc1cc(NC(=O)C(=O)OCC)cc([N+](=O)[O-])c1 | 0% | 6% | 0% |  |  |  |
| O=C(O)C(=O)Nc1cccc(NC(=O)C(=O)O)c1Cl |  |  |  | 75% | 32% |  |
| N#Cc1cc(NC(=O)C(=O)O)cc(NC(=O)C(=O)O)c1Cl |  |  |  | 100% | 100% | inhibition in vivo at 0.001 mg/kg (Rattus norvegicus [6]): 0%; inhibition in vivo at 0.01 mg/kg (Rattus norvegicus [7]): 20% |
| CC(=O)Nc1cc(NC(=O)C(=O)O)cc(NC(=O)C(=O)O)c1 |  |  |  | 47% | 11% | inhibition in vivo at 0.01 mg/kg (Rattus norvegicus [7]): 0% |
| CCOC(=O)C(=O)Nc1ccc(F)c(NC(=O)C(=O)OCC)c1 | 64% | 18% | 74% |  |  |  |
| NC(=O)c1cc(NC(=O)C(=O)O)c(Cl)c(NC(=O)C(=O)O)c1 |  |  |  | 90% | 28% | inhibition in vivo at 0.01 mg/kg (Rattus norvegicus [7]): 0% |
| CCOC(=O)C(=O)Nc1cc(C(F)(F)F)cc(NC(=O)C(=O)OCC)c1Cl | 10% | 4% | 10% |  |  |  |
| CCOC(=O)C(=O)Nc1cc(NC(=O)C(=O)OCC)c(Cl)cc1Cl | 50% | 25% |  |  |  |  |
| CCOC(=O)C(=O)Nc1cc(C(F)(F)F)cc(NC(=O)C(=O)OCC)c1C#N | 25% | 0% | 50% |  |  |  |
| CCOC(=O)C(=O)Nc1cc(-c2ccccc2)cc(NC(=O)C(=O)OCC)c1Cl | 25% |  | 25% |  |  |  |
| O=C(O)C(=O)Nc1ccc(NC(=O)C(=O)O)cc1 |  |  |  | 18% |  |  |
| N#Cc1ccc(NC(=O)C(=O)O)cc1NC(=O)C(=O)O |  |  |  | 87% | 8% |  |
| CC(=O)c1cc(NC(=O)C(=O)O)c(Cl)c(NC(=O)C(=O)O)c1 |  |  |  | 88% | 22% | inhibition in vivo at 0.01 mg/kg (Rattus norvegicus [7]): 0% |
| CCOC(=O)C(=O)Nc1cc(NC(=O)C(=O)OCC)cc(OC)c1 | 4% | 0% |  |  |  | inhibition in vivo at 50 mg/kg (Rattus norvegicus [8]): 29% |
| O=C(O)C(=O)Nc1cccc(NC(=O)C(=O)O)c1 |  |  |  | 82% | 73% | inhibition in vivo at 0.01 mg/kg (Rattus norvegicus [7]): 0% |
| CCOC(=O)C(=O)Nc1cc(C#N)cc(NC(=O)C(=O)OCC)c1 |  |  |  |  |  | inhibition in vivo at 10 mg/kg (Rattus norvegicus [9]): 0%; inhibition in vivo at 10 mg/kg (Rattus norvegicus [10]): 95%; inhibition in vivo at 10 mg/kg (Rattus norvegicus [11]): 25% |
| O=C(O)C(=O)Nc1cc(-c2ccccc2)cc(NC(=O)C(=O)O)c1Cl |  |  |  | 94% | 87% | inhibition in vivo at 0.01 mg/kg (Rattus norvegicus [7]): 44% |
| CCOC(=O)C(=O)Nc1ccc(OC)c(NC(=O)C(=O)OCC)c1 | 70% | 11% | 50% |  |  | inhibition in vivo at 50 mg/kg (Rattus norvegicus [8]): 45% |
| CCOC(=O)C(=O)Nc1cc(C)cc(NC(=O)C(=O)OCC)c1Cl | 26% | 0% |  |  |  | inhibition in vivo at 50 mg/kg (Rattus norvegicus [8]): 3% |
| CCOC(=O)C(=O)Nc1cc(NC(=O)C(=O)OCC)c(Cl)c(-c2ccccc2)c1 | 10% | 51% | 72% |  |  |  |
| CCOC(=O)C(=O)Nc1cc(NC(=O)C(=O)OCC)c([N+](=O)[O-])cc1[N+](=O)[O-] | 17% | 9% |  |  |  |  |
| CCOC(=O)C(=O)Nc1cc(C(N)=O)cc(NC(=O)C(=O)OCC)c1Cl | 49% |  | 85% |  |  |  |
| CCCCCCOC(=O)C(=O)Nc1cc(C#N)cc(NC(=O)C(=O)OCCCCCC)c1Cl |  |  |  |  |  | inhibition in vivo at 50 mg/kg (Rattus norvegicus [12]): 51%; Time (Rattus norvegicus [13]): 5 min |
| O=C(O)C(=O)Nc1cc(C(F)(F)F)cc(NC(=O)C(=O)O)c1Cl |  |  |  |  | 100% | inhibition in vivo at 0.001 mg/kg (Rattus norvegicus [6]): 0%; inhibition in vivo at 0.01 mg/kg (Rattus norvegicus [7]): 90% |
| O=C(O)C(=O)Nc1ccc(F)c(NC(=O)C(=O)O)c1 |  |  |  | 100% | 41% |  |
| COc1ccc(NC(=O)C(=O)O)cc1NC(=O)C(=O)O |  |  |  | 100% | 0% |  |
| N#Cc1cc(NC(=O)C(=O)O)ccc1NC(=O)C(=O)O |  |  |  | 45% |  |  |

| Compound | inhibition in vivo at 50 mg/kg (Rattus norvegicus [1]) | inhibition in vivo at 50 mg/kg (Rattus norvegicus [2]) | inhibition in vivo at 50 mg/kg (Rattus norvegicus [3]) | inhibition in vivo at 1 mg/kg (Rattus norvegicus [4]) | inhibition in vivo at 0.1 mg/kg (Rattus norvegicus [5]) | other results |
| --- | --- | --- | --- | --- | --- | --- |
| CCOC(=O)C(=O)Nc1cc(NC(=O)C(=O)OCC)cc(C(=O)O)c1 | 0% | 0% | 14% |  |  | inhibition in vivo at 50 mg/kg (Rattus norvegicus [8]): 20% |
| O=C(O)C(=O)Nc1cc(CS(=O)O)cc(NC(=O)C(=O)O)c1Cl |  |  |  | 85% | 10% |  |
| CCOC(=O)C(=O)Nc1cccc(NC(=O)C(=O)OCC)c1Cl | 17% | 1.8% | 53% |  |  | Time (Rattus norvegicus [13]): 5 min |
| CCCCc1ccc(NC(=O)C(=O)OCC)cc1NC(=O)C(=O)OCC | 0% | 5% | 0% |  |  | inhibition in vivo at 50 mg/kg (Rattus norvegicus [8]): 0% |
| CCOC(=O)C(=O)Nc1cc(NC(C)=O)cc(NC(=O)C(=O)OCC)c1 | 1% | 0% | 6% |  |  | inhibition in vivo at 50 mg/kg (Rattus norvegicus [8]): 24% |
| CCCCOC(=O)C(=O)Nc1cc(C#N)cc(NC(=O)C(=O)OCCCC)c1Cl |  |  |  |  |  | inhibition in vivo at 50 mg/kg (Rattus norvegicus [12]): 100%; Time (Rattus norvegicus [13]): 5 min |
| CCOC(=O)C(=O)Nc1cccc(NC(=O)C(=O)OCC)c1C | 53% |  | 28% |  |  |  |
| CCOC(=O)C(=O)Nc1cc(C(=O)OC)cc(NC(=O)C(=O)OCC)c1Cl | 7% | 0% |  |  |  | inhibition in vivo at 50 mg/kg (Rattus norvegicus [8]): 0% |
| Cc1cc(NC(=O)C(=O)O)c(Cl)c(NC(=O)C(=O)O)c1 |  |  |  | 100% | 91% | inhibition in vivo at 0.001 mg/kg (Rattus norvegicus [6]): 2%; inhibition in vivo at 0.01 mg/kg (Rattus norvegicus [7]): 20% |
| CCOC(=O)C(=O)Nc1cccc(NC(=O)C(=O)OCC)c1F |  | 0% |  |  |  |  |
| CCOC(=O)C(=O)Nc1cc(C(=O)O)cc(NC(=O)C(=O)OCC)c1C | 0% | 0% | 0% |  |  | inhibition in vivo at 50 mg/kg (Rattus norvegicus [8]): 0% |
| CCOC(=O)C(=O)Nc1cc(C(C)=O)cc(NC(=O)C(=O)OCC)c1Cl | 14% | 37% |  |  |  | inhibition in vivo at 50 mg/kg (Rattus norvegicus [8]): 31% |
| CCOC(=O)C(=O)Nc1cc(C(=O)OC)c(Cl)c(NC(=O)C(=O)OCC)c1Cl | 0% | 0% |  |  |  | inhibition in vivo at 50 mg/kg (Rattus norvegicus [8]): 0% |
| CCOC(=O)C(=O)Nc1cc(NC(=O)C(=O)OCC)cc(NC(=O)C(=O)OCC)c1 | 0% | 5% |  |  |  | inhibition in vivo at 50 mg/kg (Rattus norvegicus [8]): 0% |
| N#Cc1cc(NC(=O)C(=O)O)cc(NC(=O)C(=O)O)c1 |  |  |  |  | 90% | inhibition in vivo at 0.01 mg/kg (Rattus norvegicus [7]): 57% |
| CCOC(=O)C(=O)Nc1ccc(C)c(NC(=O)C(=O)OCC)c1 | 38% | 12% | 17% |  |  |  |
| CCOC(=O)C(=O)Nc1cccc(NC(=O)C(=O)OCC)c1C(=O)OC | 27% | 15% |  |  |  | inhibition in vivo at 50 mg/kg (Rattus norvegicus [8]): 0% |
| O=C(O)C(=O)Nc1cc(NC(=O)C(=O)O)c(Cl)cc1Cl |  |  |  | 81% | 25% | inhibition in vivo at 0.01 mg/kg (Rattus norvegicus [7]): 0% |
| CCOC(=O)C(=O)Nc1c([N+](=O)[O-])cc([N+](=O)[O-])c(NC(=O)C(=O)OCC)c1Cl | 25% | 0% |  |  |  |  |
| CCOC(=O)C(=O)Nc1cccc(NC(=O)C(=O)OCC)c1OC | 11% | 22% | 72% |  |  |  |
| CCOC(=O)C(=O)Nc1cc(C(=O)O)cc(NC(=O)C(=O)OCC)c1Cl | 41% | 15% | 15% |  |  | inhibition in vivo at 50 mg/kg (Rattus norvegicus [8]): 9% |
| O=C(O)C(=O)Nc1cc(Cl)c(NC(=O)C(=O)O)cc1Cl |  |  |  | 73% |  |  |
| N#Cc1cc(NC(=O)C(=O)OC23CC4CC(CC(C4)C2)C3)c(Cl)c(NC(=O)C(=O)OC23CC4CC(CC(C4)C2)C3)c1 |  |  |  |  |  | inhibition in vivo at 50 mg/kg (Rattus norvegicus [12]): 50%; Time (Rattus norvegicus [13]): 60 min |
| NC(=O)c1cc(NC(=O)C(=O)O)cc(NC(=O)C(=O)O)c1 |  |  |  | 91% | 17% |  |
| CCOC(=O)C(=O)Nc1cc(C#N)c(Cl)c(NC(=O)C(=O)OCC)c1 | 20% | 0% | 100% |  |  |  |
| CCOC(=O)C(=O)Nc1cc(S(C)(=O)=O)cc(NC(=O)C(=O)OCC)c1Cl | 0% | 0% | 0% |  |  |  |
